“Also recorded” adds a separate entry of the source. Like-named read-outs stand apart in the source and are kept apart here.

Data set [1] deals with Srxn1-GFP mES reporter cells. As to the kind of experiment: Srxn1-GFP oxidative stress reporter. To be noted: for Srxn1-GFP reporter induction: 24 h exposure, flow cytometry.
The subject of data set [2] is Bscl2-GFP mES reporter cells. Put plainly: Bscl2-GFP genotoxicity reporter. To be noted: for Bscl2-GFP reporter induction: 24 h exposure.
For data set [3], the system named is mouse ES cell lines containing a DsRed fluorescent reporter. To be noted: cited from earlier work.
In the next data set the test system is Salmonella. To be noted: cited from earlier work.
For data set [4] the following is noted: Genotoxicity profile; data extracted from Kirkland et al. 2008; cited from earlier work.
For data set [5] the following is noted: cited from earlier work.
For data set [6], the system named is Bscl2-GFP and Srxn1-GFP mES reporter cells.
The test system of data set [7] is mouse ES cell lines containing a DsRed fluorescent reporter.
In data set [8] the test system is Srxn1-GFP mES reporter cells.
Setting [9] is: Genotoxicity profile, data extracted from Kirkland et al. 2008.
Where [10] appears, read: from which GFP reporter is induced.

Consider `C[C@@]1(CO)[C@H](O)CC[C@@]2(C)[C@H]1CC[C@H]1C[C@@H]3C[C@@]12CC[C@]3(O)CO` [Aph, aphidicolin], for which the Srxn1-GFP reporter induction entry in data set [1] is recorded as “slight reporter activation; also recorded: slightly activated”. The Bscl2-GFP reporter induction entry in data set [2] (flow cytometry) was “significant induction of GFP expression”.

In the case of `[Cl][Cd][Cl]` [Cadmium Chloride], the “mES DsRed reporters” value in data set [3] (Hendriks et al. 2011) is on record as “Pos”. For the same compound, the Srxn1-GFP reporter induction entry in [1] was “Specific activation; also recorded: highly responsive”; in data set [1] (listed as CdCl2), “strong, concentration-dependent increase in expression of the GFP reporter”. Besides, the Ames test result with Salmonella is recorded as “Pos”. In addition, the In vitro genotoxicity entry in data set [4] was “Pos”. Besides, the In vivo genotoxicity entry in data set [5] (setting [9]) is “Pos”. In addition, the “Bscl2-GFP/Srxn1-GFP GFP Induction” value in [6] is listed as “Pos. (considered positive when exposure to at least two different concentrations of a compound resulted in >1.5 fold induction of GFP expression)”. Besides, the “Bscl2-GFP/Srxn1-GFP Prim. toxic properties” value in [6] (setting [10]) was “Pro-oxidant”.

`N.N.[Cl][Pt][Cl]` [Cisplatin]: the “mES DsRed reporters” value in [3] (Hendriks et al. 2011) is “Pos”. Moreover, the “Srxn1-GFP reporter induction, live cell imaging” value in data set [1] (5 uM CisPt or 100 uM DEM, up to 24 h) is “hardly responsive”. For the same compound, in [1] (listed as CisPt), the Srxn1-GFP reporter induction result is recorded as “also induced by the genotoxic compounds, albeit to a lesser extent; also recorded: slightly activated”. Further, the “Srxn1-GFP reporter induction (mRNA)” value in data set [1] (quantitative RT-PCR, 8 or 16 h) is “somewhat responsive”. For the same compound, in [6], the “Bscl2-GFP/Srxn1-GFP GFP Induction” value was “Pos. (considered positive when exposure to at least two different concentrations of a compound resulted in >1.5 fold induction of GFP expression)”. For the same compound, the “GFP expression in Srxn1, Bscl2 and Btg2 GFP reporter cell lines” value (“GFP expression in Srxn1” for short) in [6] (BAC TransgeneOmics lines, 30 hrs exposure, flow cytometry) is “increased”. Further, the DsRed reporter expression/activation entry in data set [7] is “clear induction of DsRed expression”. Besides, the “mRNA expression of Ephx1-DsRed reporter and endogenous Ephx1 gene” value in data set [7] (quantitative RT-PCR, up to 24 h) is on record as “transcriptionally activated”. Besides, the “time at which Bscl2-GFP expression became visible” value in [2] (5 uM CisPt, live cell imaging) amounted to 12 h.

Take `COc1cccc2c1C(=O)c1c(O)c3c(c(O)c1C2=O)C[C@@](O)(C(=O)CO)C[C@@H]3O[C@H]1C[C@H](N)[C@H](O)[C@H](C)O1` [Doxorubicin]: in data set [3] (Hendriks et al. 2011), the “mES DsRed reporters” value is “Pos”. Also, the Ames test result with Salmonella (setting [9]) was “Pos”. Moreover, the In vitro genotoxicity result in data set [4] is on record as “Pos”. The In vivo genotoxicity entry in data set [5] (setting [9]) is listed as “Pos”. For the same compound, the Srxn1-GFP reporter induction result in data set [8] is given as “also induced by the genotoxic compounds, albeit to a lesser extent”. Also, in [6], the “Bscl2-GFP/Srxn1-GFP Prim. toxic properties” value was “Genotoxin”; the “GFP expression in Srxn1” value was “increased”.

`COc1cc([C@@H]2c3cc4c(cc3[C@@H](O[C@@H]3O[C@@H]5CO[C@@H](C)O[C@H]5[C@H](O)[C@H]3O)[C@H]3COC(=O)[C@H]23)OCO4)cc(OC)c1O` [Etoposide]: the In vitro genotoxicity result in data set [4] is “Pos”. Moreover, in [5] (setting [9]), the In vivo genotoxicity result was “Pos”. Further, the Srxn1-GFP reporter induction entry in data set [8] is “also induced by the genotoxic compounds, albeit to a lesser extent”. Besides, in data set [6], the “Bscl2-GFP/Srxn1-GFP Prim. toxic properties” value is “Genotoxin”.

With `COS(C)(=O)=O` [MMS, methyl methanesulphonate], the “mES DsRed reporters” value in data set [3] was “Pos”. Also, the Ames test result in the data set on Salmonella (setting [9]) was “Pos”. Moreover, the In vivo genotoxicity result in [5] (in vivo) is “Pos”. In addition, the “Bscl2-GFP/Srxn1-GFP GFP Induction” value in data set [6] was “Pos. (considered positive when exposure to at least two different concentrations of a compound resulted in >1.5 fold induction of GFP expression)”. Moreover, in data set [6] (setting [10]), the “Bscl2-GFP/Srxn1-GFP Prim. toxic properties” value was “Pro-oxidant”. In addition, the DsRed reporter expression/activation entry in data set [7] is listed as “clear induction of DsRed expression”.

With `CC(=O)N[C@@H](CS)C(=O)O` [NAC, N-acetyl cysteine], the “effect on Srxn1-GFP reporter activation by pro-oxidants” value in data set [1] (co-incubation with DEM, CuSO4, NaAsO2, CdCl2 or MMS, 24 h) is “completely inhibited activation of the reporter”. Further, in data set [1] (data not shown), the “effect on Srxn1-GFP reporter activation by CisPt” value was “significantly reduced reporter activation”. Besides, the “effect of scavenger alone on cell viability and reporter activity” value in data set [6] (data not shown) is reported as “did not affect cell viability or reporter activity”.

As to `O=[As]O` [Sodium arsenite], the “mES DsRed reporters” value in data set [3] (Hendriks et al. 2011) is listed as “Pos”. The Srxn1-GFP reporter induction entry was “Specific activation; also recorded: highly responsive” in [1] and “strong, concentration-dependent increase in expression of the GFP reporter; also recorded: preferentially induced” in data set [1] (listed as NaAsO2). In addition, the Ames test entry with Salmonella (setting [9]) is reported as “Neg”. Besides, the In vitro genotoxicity result in data set [4] is recorded as “Pos”. Also, the In vivo genotoxicity entry in data set [5] (setting [9]) is “Pos”. Also, the “Bscl2-GFP/Srxn1-GFP GFP Induction” value in data set [6] is recorded as “Pos. (considered positive when exposure to at least two different concentrations of a compound resulted in >1.5 fold induction of GFP expression)”. The “Bscl2-GFP/Srxn1-GFP Prim. toxic properties” value in [6] (setting [10]) is recorded as “Pro-oxidant”. Moreover, the Bscl2-GFP reporter induction result in data set [2] (flow cytometry) is given as “hardly responded”; in data set [2] (flow cytometry, listed as NaAsO2), “not induced”.

As for `CC(C)(C)c1cc(O)ccc1O` [Tert-butylhydroquinone], the “mES DsRed reporters” value in data set [3] (Hendriks et al. 2011) is recorded as “Pos”. Besides, in the data set on Salmonella (setting [9]), the Ames test entry was “Neg”. Moreover, in data set [4], the In vitro genotoxicity result is reported as “Pos”. Moreover, the In vivo genotoxicity result in [5] (setting [9]) is “Neg”. Moreover, the “Bscl2-GFP/Srxn1-GFP Prim. toxic properties” value in data set [6] is “Pro-oxidant”.

Take `CCCCC(CC)COP(=O)(OCC(CC)CCCC)OCC(CC)CCCC` (centres unmarked) [Tris(2-ethylhexyl)phosphate]: the “mES DsRed reporters” value in data set [3] (Hendriks et al. 2011) is “Neg”. Besides, in the data set on Salmonella (setting [9]), the Ames test result is on record as “Neg”. In addition, the In vitro genotoxicity result in [4] is listed as “Neg”. In addition, the In vivo genotoxicity entry in data set [5] (setting [9]) is listed as “Neg”. Besides, the “Bscl2-GFP/Srxn1-GFP GFP Induction” value in [6] is “Neg”.

With `CN[C@@H]1C[C@H]2O[C@@](C)([C@@H]1OC)n1c3ccccc3c3c4c(c5c6ccccc6n2c5c31)C(=O)N[C@@H]4O` [UCN-01], the “effect on Bscl2-GFP reporter activation by CisPt or Aph” value in data set [2] (10 uM CisPt or 1.5 uM Aph, 24 h, flow cytometry) was “almost completely be repressed”.

In the case of `Cc1cccc(Nc2cc(Cl)nc(SCC(=O)O)n2)c1C` [Wyeth-14,643], in data set [7], the DsRed reporter expression/activation entry is recorded as “did not induce any reporter activation”.

Consider `CC/C(=C(/CC)c1ccc(O)cc1)c1ccc(O)cc1` [diethylstilbestrol], for which the DsRed reporter expression/activation result in data set [7] is given as “did not induce any reporter activation”.

Turning to `Cc1c2ccccc2c(C)c2c1ccc1ccccc12` [dimethylbenz(a)antracene], the “Bscl2-GFP reporter induction with metabolic activation” value in [2] (3 h with/without S9 rat liver extract, GFP after 24 h, flow cytometry) is on record as “induced expression of the Bscl2-GFP reporter only when incubated in the presence of rat S9 mix”. The “survival of Bscl2-GFP reporter cells after S9-dependent activation” value in [2] (fraction of intact cells, flow cytometry) is “reduced survival”.

As to `Nc1ccccc1C(=O)O` [o-anthranilic acid], the “mES DsRed reporters” value in data set [3] (Hendriks et al. 2011) is recorded as “Pos”. Moreover, the Ames test entry with Salmonella (setting [9]) is “Neg”. The In vitro genotoxicity entry in [4] is on record as “Pos”. In data set [5] (setting [9]), the In vivo genotoxicity result was “Neg”. For the same compound, the “Bscl2-GFP/Srxn1-GFP GFP Induction” value in [6] is “Neg”.

In the case of Mitomycin C, the Srxn1-GFP reporter induction result in [8] was “also induced by the genotoxic compounds, albeit to a lesser extent”. In addition, in [6], the “Bscl2-GFP/Srxn1-GFP GFP Induction” value was “Pos. (key: Pos.: considered positive when exposure to at least two different concentrations of a compound resulted in >1.5 fold induction of GFP expression)”; the “Bscl2-GFP/Srxn1-GFP Prim. toxic properties” value is on record as “Genotoxin”; the “GFP expression in Srxn1” value is recorded as “increased”.

Consider aflatoxin B1, for which, in data set [2], the “Bscl2-GFP reporter induction with metabolic activation” value is recorded as “induced expression of the Bscl2-GFP reporter only when incubated in the presence of rat S9 mix”.

The values above are taken from patent US9695481B2, “Polynucleotides comprising a reporter sequence operatively linked to a regulatory element” (UNIVERSITEIT LEIDEN, priority 2010, dated 2017).
